Laboratory results reported in ChEMBL document CHEMBL4257081, “Inhibitors of the kynurenine pathway” (2016).
Active and inactive are the calls of the source. The calls are words filed in the database; no cut-off is given here.

Experiments:
Mus musculus [1] = experiment: In vivo inhibition of IDO1 in po dosed LPS-induced C57BL/6 mouse assessed as reduction in plasma kynurenine levels measured after 2 to 48 hrs by LC/MS/MS analysis; assay type: functional
Mus musculus [2] = experiment: Reduction in kynurenine levels in tumor of Balb/C mouse implanted with mouse CT26 cells at 50 mg/kg, po bid for 4 days measured 2 hrs post last dose by LC/MS/MS analysis relative to control; assay type: functional; design: scale not given: the % may be the effect or the level left
Mus musculus [3] = experiment: Reduction in plasma kynurenine levels in Balb/C mouse implanted with mouse CT26 cells at 50 mg/kg, po bid for 4 days measured 2 hrs post last dose by LC/MS/MS analysis relative to control; assay type: functional; design: scale not given: the % may be the effect or the level left
[4] = molecular target: T1, Indoleamine 2,3-dioxygenase 1 (Homo sapiens, UniProt P14902); experiment: Inhibition of IDO1 in IFNgamma-stimulated human HeLa cells assessed as reduction in kynurenine formation using L-tryptophan as substrate measured after 15 mins by UV-vis HPLC analysis
[5] = molecular target: Tryptophan 2,3-dioxygenase (Homo sapiens, UniProt P48775); experiment: Inhibition of recombinant human TDO2 expressed in CHOK1 cells assessed as reduction in kynurenine formation using L-tryptophan as substrate measured after 2 hrs by LC/MS/MS analysis; assay type: cell-based
CT26 [6] = experiment: Antitumor activity against mouse CT26 cells implanted in Balb/C mouse assessed as reduction in tumor growth at 60 mg/kg, po bid measured on day 1,4,6,9,11 and 14 relative to control; assay type: functional; design: scale not given: the % may be the effect or the level left
Mus musculus [7] = experiment: Reduction in plasma kynurenine levels in Balb/C mouse implanted with mouse CT26 cells at 60 mg/kg, po bid measured after 14 days by LC/MS/MS analysis relative to control; assay type: functional; design: scale not given: the % may be the effect or the level left
Mus musculus [8] = experiment: Reduction in kynurenine levels in tumor of Balb/C mouse implanted with mouse CT26 cells at 20 mg/kg, po bid for 4 days measured 2 hrs post last dose by LC/MS/MS analysis relative to control; assay type: functional; design: scale not given: the % may be the effect or the level left
Mus musculus [9] = experiment: Reduction in plasma kynurenine levels in Balb/C mouse implanted with mouse CT26 cells at 20 mg/kg, po bid for 4 days measured 2 hrs post last dose by LC/MS/MS analysis relative to control; assay type: functional; design: scale not given: the % may be the effect or the level left
[10] = molecular target: T1, Indoleamine 2,3-dioxygenase 1; experiment: Inhibition of recombinant human N-terminal His-tagged IDO1 (1 to 403 residues) expressed in Escherichia coli assessed as reduction in kynurenine formation using tryptophan as substrate measured by LC/MS/MS analysis
CT26 [11] = experiment: Antitumor activity against mouse CT26 cells implanted in Balb/C mouse assessed as reduction in tumor growth at 75 mg/kg, po bid measured on day 1,4,6,9,11 and 14 relative to control; assay type: functional; design: scale not given: the % may be the effect or the level left
Mus musculus [12] = experiment: Reduction in plasma kynurenine levels in Balb/C mouse implanted with mouse CT26 cells at 75 mg/kg, po bid measured after 14 days by LC/MS/MS analysis relative to control; assay type: functional; design: scale not given: the % may be the effect or the level left
CT26 [13] = experiment: (§1) Synergistic antitumor activity against mouse CT26 cells implanted in Balb/c mouse assessed as reduction in tumor volume at 75 mg/kg, po bid for 35 days starting from day 5 post doxorubucin administration followed by second doxorubicin dosing at 3 weeks post doxorubicin dose measured 4 hrs post last dose; assay type: functional, organism-based
CT26 [14] = experiment: Synergistic antitumor activity against mouse CT26 cells implanted in Balb/c mouse assessed as reduction in time of tumor progression at 75 mg/kg, po bid for 35 days starting from day 5 post doxorubucin administration followed by second doxorubicin dosing at 3 weeks post doxorubicin dose; assay type: functional, organism-based
[15] = Ratio of drug level in brain to plasma in Sprague-Dawley rat at 10 mg/kg, iv administered as single dose measured after 0.5 hrs by LC/MS/MS analysis; assay type: ADME, organism-based; settings: brain and plasma, read-out: BPR
[16] = Ratio of drug level in brain to plasma in Sprague-Dawley rat at 10 mg/kg, iv administered as single dose measured after 1 hr by LC/MS/MS analysis; assay type: ADME, organism-based; settings: brain and plasma, read-out: BPR
[17] = Ratio of drug level in brain to plasma in Sprague-Dawley rat at 10 mg/kg, iv administered as single dose measured after 3 hrs by LC/MS/MS analysis; assay type: ADME, organism-based; settings: brain and plasma, read-out: BPR
CT26 [18] = experiment: Antitumor activity against mouse CT26 cells implanted in Balb/C mouse assessed as reduction in tumor growth at 40 mg/kg, po bid measured on day 1,4,6,9,11 and 14; assay type: functional, organism-based
Mus musculus [19] = experiment: Reduction in plasma kynurenine levels in Balb/C mouse implanted with mouse CT26 cells at 40 mg/kg, po bid measured after 14 days by LC/MS/MS analysis relative to control; assay type: functional; design: scale not given: the % may be the effect or the level left
CT26 [20] = experiment: Antitumor activity against mouse CT26 cells implanted in Balb/C mouse assessed as reduction in tumor growth at 50 mg/kg, po bid measured on day 1,4,6,9,11 and 14 relative to control; assay type: functional; design: scale not given: the % may be the effect or the level left
Mus musculus [21] = experiment: Reduction in plasma kynurenine levels in Balb/C mouse implanted with mouse CT26 cells at 50 mg/kg, po bid measured after 14 days by LC/MS/MS analysis relative to control; assay type: functional; design: scale not given: the % may be the effect or the level left
CT26 [22] = experiment: as §1, with “at 50” for “at 75”, “post doxorubucin” for “post doxorubicin”; assay type: functional, organism-based
CT26 [23] = experiment: Synergistic antitumor activity against mouse CT26 cells implanted in Balb/c mouse assessed as reduction in time of tumor progression at 50 mg/kg, po bid for 35 days starting from day 5 post doxorubucin administration followed by second doxorubicin dosing at 3 weeks post doxorubucin dose; assay type: functional, organism-based

Chain of Tryptophan 2,3-dioxygenase (P48775 whole entry): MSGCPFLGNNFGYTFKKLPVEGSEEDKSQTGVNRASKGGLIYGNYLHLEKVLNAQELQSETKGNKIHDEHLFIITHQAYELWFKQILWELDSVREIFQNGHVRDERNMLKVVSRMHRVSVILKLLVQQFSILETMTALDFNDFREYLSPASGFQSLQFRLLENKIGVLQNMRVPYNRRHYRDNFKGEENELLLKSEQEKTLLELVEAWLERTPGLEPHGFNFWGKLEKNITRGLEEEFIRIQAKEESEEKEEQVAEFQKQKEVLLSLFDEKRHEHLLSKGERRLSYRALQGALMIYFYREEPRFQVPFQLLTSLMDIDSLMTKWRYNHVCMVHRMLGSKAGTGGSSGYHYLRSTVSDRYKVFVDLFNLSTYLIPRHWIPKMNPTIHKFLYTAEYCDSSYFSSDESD
T1 sequence (P14902 whole entry): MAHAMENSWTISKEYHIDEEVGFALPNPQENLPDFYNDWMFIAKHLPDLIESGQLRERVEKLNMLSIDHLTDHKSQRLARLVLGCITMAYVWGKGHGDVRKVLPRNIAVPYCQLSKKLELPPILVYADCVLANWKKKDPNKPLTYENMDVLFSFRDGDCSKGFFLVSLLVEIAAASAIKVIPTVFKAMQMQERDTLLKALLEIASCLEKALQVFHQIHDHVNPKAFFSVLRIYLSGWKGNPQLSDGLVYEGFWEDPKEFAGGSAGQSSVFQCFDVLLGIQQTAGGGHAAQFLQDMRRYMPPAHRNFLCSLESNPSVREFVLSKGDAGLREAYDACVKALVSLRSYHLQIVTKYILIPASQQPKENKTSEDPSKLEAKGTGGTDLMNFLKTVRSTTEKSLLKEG

Row | Compound | inhibition (INH) (Mus musculus [1]) | Activity (Mus musculus [2]) | Activity (Mus musculus [3]) | also measured
1 | N#Cc1ccc(-c2nccc3c(Nc4ccc(F)c(Cl)c4)c(N)oc23)cc1 | >50% | – | – | –
2 | CNC(=O)c1cc(-c2nccc3c(Nc4ccc(F)c(Cl)c4)c(N)oc23)ccn1 | – | >50% | >50% | –
3 | Nc1oc2c(-c3ccc(F)c(F)c3F)nccc2c1Nc1ccc(F)c(Cl)c1 | >50% | – | – | –
4 | Nc1oc2c(F)nc(F)cc2c1Nc1ccc(F)c(Cl)c1 | >=25 - 50% | >50% | >=25 - 50% | –
5 | N#Cc1nccc2c(Nc3ccc(F)c(C(F)(F)F)c3)c(N)oc12 | >50% | <25% | >=25 - 50% | –
6 | C#Cc1cccc(Nc2c(N)oc3c(-c4ccccc4)nccc23)c1 | >50% | – | – | –
7 | Cc1cc(-c2nccc3c(Nc4ccc(F)cc4)c(N)oc23)ccn1 | >50% | – | – | –
8 | Nc1sc2ccccc2c1Nc1cccc(Cl)c1 | >=25 - 50% | – | – | –
9 | Nc1sc2cnccc2c1Nc1ccc(F)c(Cl)c1 | <25% | – | – | –
10 | Nc1oc2c(-c3ccccc3Cl)nccc2c1Nc1ccc(F)c(Cl)c1 | >=25 - 50% | – | – | IC50 [4]: < 0.2 µM; IC50 [5]: < 0.5 µM
11 | Nc1sc2c(-c3ccncc3)cccc2c1Nc1ccc(F)c(Cl)c1 | >=25 - 50% | – | – | –
12 | Cc1cc(-c2nccc3c(Nc4cccc(C(F)(F)F)c4)c(N)oc23)ccn1 | >50% | – | – | –
13 | Cc1cc(-c2nccc3c(Nc4ccc(F)c(F)c4)c(N)oc23)ccn1 | >50% | >50% | >50% | –
14 | Nc1oc2c(Cl)nccc2c1Nc1ccc(F)c(Cl)c1 | >50% | >=25 - 50% | >=25 - 50% | Activity (CT26 [6]): 26 - 38%; Activity (Mus musculus [7]): 40 - 50%
15 | C#Cc1cccc(Nc2c(N)oc3c(CC)nccc23)c1 | >50% | – | – | –
16 | Nc1sc2ccccc2c1Nc1ccc(F)c(Cl)c1 | >=25 - 50% | – | – | –
17 | Nc1oc2cnccc2c1Nc1cccc(C(F)(F)F)c1 | >50% | – | – | Activity (Mus musculus [8]): >=25 - 50%; Activity (Mus musculus [9]): >50%
18 | Cc1cc(-c2nccc3c(Nc4ccc(F)c(Cl)c4)c(N)oc23)cc(C)n1 | >50% | >=25 - 50% | >=25 - 50% | –
19 | Nc1oc2c(-c3ccccc3)nc(Oc3ccccc3)cc2c1Nc1ccc(F)c(Cl)c1 | – | – | – | IC50 [10]: > 1 µM; IC50 [5]: > 2 µM
20 | Nc1oc2cnccc2c1Nc1ccc(F)c(Br)c1 | >50% | – | – | –
21 | Nc1oc2c(-c3ccc(F)cc3)nccc2c1Nc1ccc(F)c(Cl)c1 | >50% | – | – | –
22 | Nc1oc2c(-c3ccncc3)nc(F)cc2c1Nc1ccc(F)c(Cl)c1 | >50% | >=25 - 50% | <25% | –

Row | Compound | inhibition (INH) (Mus musculus [1]) | Activity (Mus musculus [2]) | Activity (Mus musculus [3]) | also measured
23 | CCOC(=O)Nc1oc2c(C#N)nccc2c1N(C(=O)OCC)c1ccc(F)c(Cl)c1 | – | <25% | >=25 - 50% | –
24 | Nc1oc2cnc(F)cc2c1Nc1ccc(F)c(Cl)c1 | >50% | <25% | >=25 - 50% | –
25 | Nc1oc2c(-c3ccncc3)nccc2c1Nc1ccc(F)c(Cl)c1 | >50% | – | – | Activity (CT26 [11]): 26 - 38%; Activity (Mus musculus [12]): 40 - 50%; Activity (CT26 [13]): Active; Activity (CT26 [14]): Active; Kp at 0.5 h [15]: 0.67; Kp at 1 h [16]: 0.47; Kp at 3 h [17]: 0.64
26 | Nc1sc2ccccc2c1Nc1ccccc1 | – | – | – | IC50 [10]: 0.2 to 1 µM; IC50 [5]: < 0.5 µM
27 | O=C(Nc1oc2cnccc2c1N(C(=O)OCc1ccccc1)c1ccc(F)c(Cl)c1)OCc1ccccc1 | >50% | – | – | –
28 | Nc1oc2c(-c3ccc(F)c(F)c3)nccc2c1Nc1ccc(F)c(Cl)c1 | >=25 - 50% | – | – | –
29 | CCOC(=O)Nc1oc2cnccc2c1N(C(=O)OCC)c1ccc(F)c(Cl)c1 | >50% | >50% | >50% | –
30 | Nc1oc2c(-c3ccncc3)nc(F)cc2c1Nc1ccc(F)c(F)c1 | >50% | >50% | >=25 - 50% | –
31 | Cc1cc(-c2nccc3c(Nc4ccc(F)c(Cl)c4)c(N)oc23)ccn1 | >50% | >50% | >50% | –
32 | COc1ccc(-c2nccc3c(Nc4ccc(F)c(Cl)c4)c(N)oc23)cc1 | >50% | – | – | –
33 | Nc1oc2c(-c3cccc4ccccc34)nccc2c1Nc1ccc(F)c(Cl)c1 | >=25 - 50% | >50% | >50% | –
34 | COCCNC(=O)c1ccc(-c2nccc3c(Nc4ccc(F)c(Cl)c4)c(N)oc23)cc1 | >50% | – | – | –
35 | Nc1oc2cnc(Cl)cc2c1Nc1ccc(F)c(Cl)c1 | >50% | – | – | –
36 | COc1ccccc1-c1nccc2c(Nc3ccc(F)c(Cl)c3)c(N)oc12 | – | <25% | <25% | –
37 | CCOC(=O)Nc1oc2cnccc2c1Nc1ccc(F)c(Cl)c1 | – | – | – | IC50 [10]: > 1 µM; IC50 [5]: > 2 µM
38 | Nc1oc2cnccc2c1Nc1ccc(F)c(Cl)c1 | >50% | – | – | Activity (CT26 [18]): Active; Activity (Mus musculus [19]): 40 - 50%; Kp at 0.5 h [15]: 9.8; Kp at 1 h [16]: 10.7; Kp at 3 h [17]: 6
39 | N#Cc1nccc2c(Nc3ccc(F)c(Cl)c3)c(N)oc12 | >50% | <25% | >=25 - 50% | –
40 | Nc1oc2c(-c3ccncc3)nccc2c1Nc1ccc(F)c(C(F)(F)F)c1 | >50% | – | – | –
41 | Nc1oc2c(-c3ccnc(N4CCOCC4)c3)nccc2c1Nc1ccc(F)c(Cl)c1 | >50% | >=25 - 50% | >50% | –
42 | Nc1oc2cnc(F)cc2c1Nc1ccc(F)c(C(F)(F)F)c1 | – | – | – | IC50 [4]: < 0.2 µM; IC50 [5]: < 0.5 µM
43 | Nc1oc2c(-c3ccncc3)nccc2c1Nc1ccc(F)c(F)c1 | >50% | >50% | >50% | Activity (CT26 [20]): 26 - 38%; Activity (Mus musculus [21]): 40 - 50%; Activity (CT26 [22]): Active; Activity (CT26 [23]): Active
44 | Nc1oc2cnccc2c1Nc1ccc(F)c(F)c1 | >50% | – | – | IC50 [10]: 0.2 to 1 µM; IC50 [5]: 0.5 to 2 µM
